Results on 24 compounds are retold here after US10377741B2, “Substituted heteroaryl aldehyde compounds and methods for their use in increasing tissue oxygenation” (Global Blood Therapeutics, Inc., priority 2011, dated 2019).

Assay [1] deals with T1, purified Hemoglobin S (HbS) (Homo sapiens, UniProt P68871+P69905, E7V).
T1 construct: HbS was purified by a modified procedure; from tissue; host or cells: blood of homozygous sickle cell patients (CHORI); for the polymerization assay purified by the CRO VIRUSYS
Kind of assay: Modulation of hemoglobin oxygen affinity: oxygen equilibrium curves (HEMOX) in purified HbS. To be noted: compound at 30 μM; 25 μM purified HbS, 45 min at 37° C. Format: biochemical, human (homozygous sickle cell patients). As for the experimental part: Oxygen equilibrium curves (OEC) in purified Hemoglobin S (HbS) were measured by the change in p50, the partial pressure of oxygen at which the heme binding sites in the HbS sample are 50% saturated with oxygen. HbS was purified by a modified procedure (Antonini and Brunori, 1971; Heomoglobin and Myoglobin in their Reactions with Ligands; North Holland Publishing Company; Amsterdam, London) from blood obtained from homozygous sickle cell patients though the Hemoglobinopathy Center at Children's Hospital Oakland Research Institute (CHORI) with Institutional Review Board approval. Oxygen equilibrium curves were carried out with a HEMOX analyzer, (TCS Scientific, New Hope, Pa.). Five hundred μL of 250 μM purified HbS were diluted into 4.5 mL of HEMOX buffer (30 mM TES, 130 mM NaCl, 5 mM KCl, pH=7.4) resulting in a final hemoglobin concentration of 25 μM. The compounds were added at the final desired concentrations. The mixture was incubated for 45 min at 37° C. and then transferred to the Hemox sample chamber. The samples were saturated with oxygen by flushing with compressed air for 10 minutes. The samples were then flushed with pure nitrogen and the absorbance of deoxy-Hb was recorded as a function of the solution pO2. The oxygen equilibrium data was then fit to the Hill Model to obtain values for p50. The deoxygenation curves for both HbS alone (control) and HbS in the presence of compound were collected with the TCS software. The p50 for purified Hbs was typically 13.8±1.6. Delta p50 values were obtained from the p50 value for control minus the p50 value for HbS treated with compound divided by the p50 value for the control.
The compounds of Table 1 that were where tested in the assay above were all found to have positive delta p50 values. Delta p50% is calculated from [[p50(HbS) −p50(HbS treated with compound)]/p50(HbS)]×100. Table 2 below lists the delta p50% values where + indicates a delta p50% of between 0 and 29, ++ indicates a delta p50% of between 30 and 50, and +++ indicates a delta p50% of 50 or greater. Unless noted otherwise, the compounds in Table 2 were tested at 30 μM.

For a further assay, the target named is T2, HbS/A (Homo sapiens, UniProt P68871+P69905, E7V).
T2 construct: A mixture of HbS/A was purified from blood; from tissue; host or cells: blood of homozygous sickle cell patients (CHORI)
Kind of assay: R/T assay (relaxed-to-tense transition under deoxygenated conditions). Format: biochemical, human (homozygous sickle cell patients). To be noted: compound at 9 μM; 3 μM HbS/A; % R remaining vs no treatment. As for the experimental part: A relaxed-to-tense transition assay (“R/T assay”) was used to determine the ability of substituted benzaldehyde compounds to maintain the high-oxygen affinity relaxed (R) state of hemoglobin under deoxygenated conditions. This ability can be expressed as a “delta R” value (i.e., the change in the time-period of the R state after hemoglobin is treated with a compound, as compared to the period without treatment with the compound). Delta R is the % R to remaining after the compounds treatment compared with no treatment (e.g. if R % without treatment is 8% while with treatment with a target compound is 48% R at 30 μM, then % R is 40% for that compound.
A mixture of HbS/A was purified from blood obtained from homozygous sickle cell patients though the Hemoglobinopathy Center at Children's Hospital Oakland Research Institute (CHORI) with Institutional Review Board approval. HbS/A (at a final concentration of 3 μM) was incubated for 1 hr at 37° C. in presence or absence of compounds in […] potassium phosphate buffer, pH=7.4 and 30 μM 2, 3 diphosphoglycerate (DPG) in 96 well plates in a final volume of 160 μl. Compounds were added at different concentrations (3 μM to 100 μM final concentrations). Plates were covered with a Mylar film. After incubation was completed the Mylar cover was removed and the plates were placed in a Spectrostar Nano plate reader previously heated at 37° C. Five minutes later, N2 (flow rate=20 L/min) was flowed through the spectrophotometer. Spectroscopic measurements (300 nm to 700 nm) were taken every 5 min for 2 hours. Data analysis was performed by using linear regression from the data retrieved for all wavelengths.
Table 4 below lists the delta R values where + indicates a delta R of between 0 and 30, ++ indicates a delta R of between 30 and 50, and +++ indicates a delta R of 50 or greater. Unless noted otherwise, the compounds in Table 2 were tested at 30 μM.

As to `COc1cc(C=O)c(OCc2cncc(C)c2)cn1` [Compound 43, 2-methoxy-5-((5-methylpyridin-3-yl)methoxy)isonicotinaldehyde], in assay [1], the “delta p50%” value was “++ (a delta p50% of between 30 and 50)”. On HbS/A, the “delta R” value is “+ (a delta R of between 0 and 30)”.
For the compound `COc1cc(C=O)c(OCc2ccc3ccccc3n2)cn1` [Compound 45, 2-methoxy-5-(quinolin-2-ylmethoxy)isonicotinaldehyde], the “delta p50%” value in assay [1] is recorded as “+++ (a delta p50% of 50 or greater)”. For the same compound, the “delta R” value at HbS/A is “++ (a delta R of between 30 and 50)”.
For the compound `COc1cc(C=O)c(OCc2ccncc2)cn1` [Compound 46, 2-methoxy-5-(pyridin-4-ylmethoxy)isonicotinaldehyde], the “delta p50%” value in assay [1] is “++ (a delta p50% of between 30 and 50)”. Besides, the “delta R” value at HbS/A was “+ (a delta R of between 0 and 30)”.
As for `COC(=O)c1cccn2cc(COc3cnc(OC)cc3C=O)nc12` [Compound 53, methyl 2-((4-formyl-6-methoxypyridin-3-yloxy)methyl)imidazo[1,2-a]pyridine-8-carboxylate], the “delta p50%” value in assay [1] was “++ (a delta p50% of between 30 and 50)”. Moreover, at HbS/A, the “delta R” value was “+ (a delta R of between 0 and 30)”.
As for `COc1cc(C=O)c(OCc2cccnc2Br)cn1` [Compound 63, 5-((2-bromopyridin-3-yl)methoxy)-2-methoxyisonicotinaldehyde], in assay [1], the “delta p50%” value is listed as “+++ (a delta p50% of 50 or greater)”. Besides, the “delta R” value at HbS/A was “++ (a delta R of between 30 and 50)”.
`COc1cc(C=O)c(OCc2cncc(Br)c2)cn1` [Compound 66, 5-((5-bromopyridin-3-yl)methoxy)-2-methoxyisonicotinaldehyde]: the “delta p50%” value in assay [1] was “++ (a delta p50% of between 30 and 50)”. In addition, the “delta R” value on HbS/A was “++ (a delta R of between 30 and 50)”.
In the case of `COc1cc(C=O)c(OCc2cccc3c2cnn3C)cn1` [Compound 84, 2-methoxy-5-((1-methyl-1H-indazol-4-yl)methoxy)isonicotinaldehyde], the “delta p50%” value in assay [1] was “++ (a delta p50% of between 30 and 50)”. The “delta R” value on HbS/A was “++ (a delta R of between 30 and 50)”.
As to `Cc1ccc(OCc2cccc3c2cnn3C(=O)OC(C)(C)C)c(C=O)n1` [Compound 86, tert-butyl 4-((2-formyl-6-methylpyridin-3-yloxy)methyl)-1H-indazole-1-carboxylate], in assay [1], the “delta p50%” value was “++ (a delta p50% of between 30 and 50)”. On HbS/A, the “delta R” value was “+ (a delta R of between 0 and 30)”.
Regarding `Cc1ccc(OCc2ccc3cnn(C)c3c2)c(C=O)n1` [Compound 91, 6-methyl-3-((1-methyl-1H-indazol-6-yl)methoxy)picolinaldehyde], in assay [1], the “delta p50%” value is “++ (a delta p50% of between 30 and 50)”. Moreover, at HbS/A, the “delta R” value is listed as “+++ (a delta R of 50 or greater)”.
Regarding `Cc1ccc(OCc2cccc3ncccc23)c(C=O)n1` [Compound 119, 6-methyl-3-(quinolin-5-ylmethoxy)picolinaldehyde], the “delta p50%” value in assay [1] is “++ (a delta p50% of between 30 and 50)”. Further, at HbS/A, the “delta R” value was “++ (a delta R of between 30 and 50)”.
Regarding `CCOC(=O)C1CSC(c2cc(OC)ncc2OCc2cccn3ccnc23)N1` (centres unmarked) [Compound 126, ethyl 2-(5-(imidazo[1,2-a]pyridin-8-ylmethoxy)-2-methoxypyridin-4-yl)thiazolidine-4-carboxylate], the “delta p50%” value in assay [1] is “+ (a delta p50% of between 0 and 29)”.
Same read-out and setting: next, `COc1cc(C=O)c(OCc2cccnc2-c2cnn(C)c2)cn1` [Compound 127, 2-methoxy-5-((2-(1-methyl-1H-pyrazol-4-yl)pyridin-3-yl)methoxy)isonicotinaldehyde]: “+ (a delta p50% of between 0 and 29)”.
With `COc1cc(C=O)c(OCc2cccnc2-c2cn[nH]c2)cn1` [Compound 128, 5-((2-(1H-pyrazol-4-yl)pyridin-3-yl)methoxy)-2-methoxyisonicotinaldehyde], the “delta p50%” value in assay [1] is “+ (a delta p50% of between 0 and 29)”.
`COc1cc(C=O)c(OCc2cccnc2-n2cccn2)cn1` [Compound 134, 5-((2-(1H-pyrazol-1-yl)pyridin-3-yl)methoxy)-2-methoxyisonicotinaldehyde]: the “delta p50%” value in assay [1] was “++ (a delta p50% of between 30 and 50)”. In addition, the “delta R” value at HbS/A is “+ (a delta R of between 0 and 30)”.
In the case of `Cc1ccc(OCc2cccnc2-n2cccn2)c(C=O)n1` [Compound 135, 3-((2-(1H-pyrazol-1-yl)pyridin-3-yl)methoxy)-6-methylpicolinaldehyde], in assay [1], the “delta p50%” value is “+ (a delta p50% of between 0 and 29)”.
In the case of `Cc1ccc(OCc2cccnc2)c(C=O)n1` [Compound 136, 6-methyl-3-(pyridin-3-ylmethoxy)picolinaldehyde], the “delta p50%” value in assay [1] is “+ (a delta p50% of between 0 and 29)”.
For the compound `COC(=O)c1cc(COc2cnc(OC)cc2C=O)c2nccn2c1` [Compound 137, methyl 8-(((4-formyl-6-methoxypyridin-3-yl)oxy)methyl)imidazo[1,2-a]pyridine-6-carboxylate], in assay [1], the “delta p50%” value is “+ (a delta p50% of between 0 and 29)”.
Consider `COC(=O)c1cc(COc2cnc(OC)cc2C=O)c2nc(Br)cn2c1` [Compound 138, methyl 2-bromo-8-(((4-formyl-6-methoxypyridin-3-yl)oxy)methyl)imidazo[1,2-a]pyridine-6-carboxylate], for which, in assay [1], the “delta p50%” value was “+ (a delta p50% of between 0 and 29)”.
On to `Cc1ccc(OCc2cccn3cncc23)c(C=O)n1` [Compound 139, 3-(imidazo[1,5-a]pyridin-8-ylmethoxy)-6-methylpicolinaldehyde], for which the “delta p50%” value in assay [1] was “+ (a delta p50% of between 0 and 29)”.
As for `COC(=O)c1cncc(COC(=O)c2cncc(COc3cnc(OC)cc3C=O)c2)c1` [Compound 141, (5-(methoxycarbonyl)pyridin-3-yl)methyl 5-(((4-formyl-6-methoxypyridin-3-yl)oxy)methyl)nicotinate], the “delta p50%” value in assay [1] is “+ (a delta p50% of between 0 and 29)”.
In the case of `COc1cc(C=O)c(OCc2cccnc2-c2c(C)cnn2C)cn1` [Compound 142, 5-((2-(1,4-dimethyl-1H-pyrazol-5-yl)pyridin-3-yl)methoxy)-2-methoxyisonicotinaldehyde], the “delta p50%” value in assay [1] was “+ (a delta p50% of between 0 and 29)”.
With `COc1cc(C=O)c(OCc2cccnc2-c2cccnc2)cn1` [Compound 161, 5-([2,3′-bipyridin]-3-ylmethoxy)-2-methoxyisonicotinaldehyde], in assay [1], the “delta p50%” value is “++ (a delta p50% of between 30 and 50)”. Further, on HbS/A, the “delta R” value was “+ (a delta R of between 0 and 30)”.
With `COCCn1nccc1-c1ncccc1COc1cnc(OC)cc1C=O` [Compound 172, 2-methoxy-5-((2-(1-(2-methoxyethyl)-1H-pyrazol-5-yl)pyridin-3-yl)methoxy)isonicotinaldehyde], in assay [1], the “delta p50%” value is “++ (a delta p50% of between 30 and 50)”. The “delta R” value at HbS/A was “+ (a delta R of between 0 and 30)”.
On to `COc1cc(C=O)c(OCc2cccnc2-c2ccnn2COCC[Si](C)(C)C)cn1` [Compound 193, 2-methoxy-5-((2-(1-((2-(trimethylsilyl)ethoxy)methyl)-1H-pyrazol-5-yl)pyridin-3-yl)methoxy)isonicotinaldehyde], for which the “delta p50%” value in assay [1] is “++ (a delta p50% of between 30 and 50)”. On HbS/A, the “delta R” value is “+ (a delta R of between 0 and 30)”.
